Several values for one entry are separate records, joined by “and”; a condition that tells them apart may be missing. Equal values may be shown once. Entries after “also recorded” stand apart in the source; their conditions may differ. Read-outs that look alike come from different tables or passages of the source.
Key:
[1] = test system: PYK from T. gondii; conditions: cited from earlier work
[2] = test system: PYK from P. falciparum; conditions: cited from earlier work
[3] = target: T1, rBmPYKI (Babesia microti, UniProt A0A1N6LXR4); experiment: biochemical; assay type: biochemical
[4] = target: rBmLDH (Babesia microti, UniProt I7J7V6); experiment: biochemical; assay type: biochemical
Sequence of rBmLDH (I7J7V6 1-332): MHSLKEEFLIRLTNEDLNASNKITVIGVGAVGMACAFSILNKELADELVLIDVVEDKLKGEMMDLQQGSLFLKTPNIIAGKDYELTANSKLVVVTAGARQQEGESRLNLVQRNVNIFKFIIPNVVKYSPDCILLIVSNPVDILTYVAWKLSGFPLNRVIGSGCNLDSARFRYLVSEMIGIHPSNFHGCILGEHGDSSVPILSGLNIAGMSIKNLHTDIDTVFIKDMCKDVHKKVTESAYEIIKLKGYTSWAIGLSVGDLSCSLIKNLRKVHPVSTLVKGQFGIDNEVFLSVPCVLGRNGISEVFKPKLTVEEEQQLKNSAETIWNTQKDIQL

[5] = test system: B. microti; experiment: Growth inhibition of Babesia microti by in vitro culture; assay type: cell-based; conditions: for IC50: read-out: IC50 B. microti
Experimental: Infected mouse blood was collected and centrifuged at 845 × g for 5 min, and the infected mouse RBCs was isolated. The RBCs infected by B. microti were diluted to 5% with uninfected mouse and human RBCs (10:1). […] Drug-free wells were set up as blank control. All treatments were carried out in triplicate. After 72 h of incubation, parasitemia was examined by Giemsa staining under a microscope.

[6] = Cytotoxicity assay, Cell Counting Kit-8, HFF cells; conditions: human
[7] = Cytotoxicity assay, Cell Counting Kit-8, Vero cells; conditions: African green monkey
[8] = in vitro; conditions: African green monkey
[9] = in vitro; conditions: human
[10] = test system: B. microti; experiment: Rescue assay of tannic acid (pyruvate or ATP added); assay type: cell-based, Babesia microti; conditions: for effect of addition of ATP on the inhibitory effect: 2 mM ATP; for effect of addition of ATP on the inhibitory effect / effect of addition of pyruvate on the inhibitory effect / inhibition of B. microti as compared with DMSO: tannic acid 1 μM, DA about 10 μM; for effect of addition of pyruvate on the inhibitory effect: 2 mM pyruvic acid
Experimental: MilliporeSigma) was used as the positive control, and DMSO was used as the negative control because tannic acid was diluted in DMSO. The group only containing medium without any treatment was used as the blank control. Each test was performed in triplicate.

[11] = test system: Vero cells
[12] = test system: HFF cells
[13] = test system: trypanosomes; parameters: method as in Worku et al., 2015; conditions: net ATP depletion by inhibiting PYK; ref Worku et al., 2015; cited from earlier work
[14] = target: T1, rBmPYKI; experiment: Enzyme kinetics of rBmPYKI on substrates PEP and ADP; assay type: biochemical; conditions: substrate of rBmPYKI
Experimental: (§1) To determine the enzymatic activity of purified rBmPYKI, the GST tag was removed from the recombinant protein; and the indirect coupled lactate dehydrogenase (LDH) assay was applied. Recombinant B. microti LDH (rBmLDH) protein, the only one isoform in B. microti, was expressed and purified according to previously published protocol ([Yu et al., 2019]). The standard enzyme kinetic assay was conducted by monitoring the decrease in NADH at a wavelength of 340 nm using a microplate reader (BioTek, Winooski, VT, United States). One unit of the PYK activity here was defined as 1 μmol of NADH oxidized per minute at 37°C. The samples were continuously measured at 2, 7, 12, 17, 22, and 27 min. To determine the effects of pH and the concentration of Mg^2+ and K^+ on rBmPYKI, the assay was performed in the pH range of 5.5–8.5, and the Mg^2+ and K^+ concentrations ranged from 0 to 200 mM (0, 25, 50, 75, 100, 125, 150, 175, and 200 mM). The standard assay mixture (200 μl) contained 50 mM of Tris-HCl (pH 7.0), 50 mM of MgCl2, 20 mM of KCl, 0.5 mM of NADH (MilliporeSigma), 3 mM of PEP (MilliporeSigma), 1 mM of ADP (MilliporeSigma), 100 ng of rBmLDH (20 U), and 100 ng of rBmPYKI. The initial velocity for the rate of […] of NADH in the first 5 min was calculated, and the relative percentage activity was determined. The kinetic parameters for PEP (at 0.5, 1, 2, 3, 4, and 5 mM) under saturating ADP conditions (3 mM) were determined. The Michaelis–Menten constant (Km) for ADP under 7 mM of PEP (saturation) was determined at 0.05, 0.1, 0.2, 0.4, 0.6, 0.8, 1.0, 1.5, and 2.0 mM.

[15] = test system: corresponding enzymes from mammals; conditions: cited from earlier work
[16] = substrate: C=C(OP(=O)(O)O)C(=O)O; experiment: Enzyme kinetics of rBmPYKI on substrates PEP and ADP; assay type: biochemical, Babesia microti; conditions: other: substrate of rBmPYKI; other substrate saturating; pH 7.0; 37.0 °C
Experimental: as §1, with “The standard assay mixture (200 μl) contained 50 mM of Tris-HCl (pH 7.0), 50 mM of MgCl2, 20 mM of KCl, 0.5 mM of NADH (MilliporeSigma), 3 mM of PEP (MilliporeSigma), 1 mM of ADP (MilliporeSigma), 100 ng of rBmLDH (20 U), and 100 ng of rBmPYKI.” left out, “The Michaelis–Menten constant (Km) for ADP under 7 mM of PEP (saturation) was determined at 0.05, 0.1, 0.2, 0.4, 0.6, 0.8, 1.0, 1.5, and 2.0 mM.” left out

[17] = substrate: Nc1ncnc2c1ncn2[C@@H]1O[C@H](COP(=O)(O)OP(=O)(O)O)[C@@H](O)[C@H]1O; experiment: Indirect coupled LDH assay following NADH decrease at 340 nm, pH 7.0, 37 °C, 50 mM MgCl2, 20 mM KCl, ADP varied 0.05-2.0 mM at saturating 7 mM PEP, no FBP.; assay type: biochemical
Experimental: To determine the enzymatic activity of purified rBmPYKI, the GST tag was removed from the recombinant protein; and the indirect coupled lactate dehydrogenase (LDH) assay was applied. Recombinant B. microti LDH (rBmLDH) protein, the only one isoform in B. microti, was expressed and purified according to previously published protocol ([Yu et al., 2019]). The standard enzyme kinetic assay was conducted by monitoring the decrease in NADH at a wavelength of 340 nm using a microplate reader (BioTek, Winooski, VT, United States). One unit of the PYK activity here was defined as 1 μmol of NADH oxidized per minute at 37°C. The samples were continuously measured at 2, 7, 12, 17, 22, and 27 min. […] The initial velocity for the rate of […] of NADH in the first 5 min was calculated, and the relative percentage activity was determined. The kinetic parameters for PEP (at 0.5, 1, 2, 3, 4, and 5 mM) under saturating ADP conditions (3 mM) were determined. […]
Statistical analysis was conducted with GraphPad Prism 7.0 (GraphPad Software, La Jolla, CA, United States). Statistical significance was evaluated by one-way ANOVA; and all data were presented as the mean ± standard deviation (SD) from at least three independent experiments performed in duplicate. […]

[18] = in vitro culture, 72 h, parasitemia by Giemsa staining

C=C(OP(=O)(O)O)C(=O)O [PEP, phosphoenolpyruvate]
Km [1]: 750 µM
Km [2]: 190 µM

COc1c(O)cc(O)c2c(=O)cc(-c3ccccc3)oc12 [Wogonin]
IC50 [3]: 185 µM
IC50 [4]: 143 µM
effect on rBmLDH / LDH reaction activity [4]: obvious inhibitory effect

CC(C)=CCC1=C(O)C(=O)c2ccccc2C1=O [Lapachol]
effect on the activity of rBmPYKI [3]: no effect
IC50 [4]: 721 µM
effect on rBmLDH / LDH reaction activity [4]: no effect

Cc1ccc(C(=O)Nc2ccc(S(=O)(=O)O)c3cc(S(=O)(=O)O)cc(S(=O)(=O)O)c23)cc1NC(=O)c1cccc(NC(=O)Nc2cccc(C(=O)Nc3cc(C(=O)Nc4ccc(S(=O)(=O)O)c5cc(S(=O)(=O)O)cc(S(=O)(=O)O)c45)ccc3C)c2)c1 [Suramin]
IC50 ([3]; read-out: IC50 rBmPYKI): 125 µM
effect on rBmLDH / LDH reaction activity [4]: obvious inhibitory effect
IC50 ([4]; read-out: IC50 rBmLDH): 44.2 µM

CN(CCOc1ccc(CC2SC(=O)NC2=O)cc1)c1ccccn1 (centres unmarked) [Rosiglitazone]
effect on the activity of rBmPYKI [3]: significantly inhibit; also recorded: significantly reduce
IC50 ([3]; read-out: IC50 rBmPYKI): 6.89 µM

CC(C)=CC[C@@H](O)C1=CC(=O)c2c(O)ccc(O)c2C1=O [Shikonin]
IC50 [3]: 187 µM
effect on the activity of rBmPYKI [3]: significantly inhibit
effect on rBmLDH / LDH reaction activity [4]: did not affect
IC50 ([4]; read-out: IC50 rBmLDH): > 1950 µM
hemolysis of RBCs ([5]; 100 μM, infected RBC culture): Slight hemolysis
IC50 ([5]; Babesia microti, 72 h): 1.73 ± 0.69 µM
inhibition at 20 µM ([5]; Babesia microti, 72 h, read-out: inhibition rate of B. microti growth): 80%
CC50 [6]: 0.63 ± 0.4 µM
CC50 [7]: 2.37 ± 0.26 µM

O=c1cc(-c2ccc(O)cc2)oc2cc(O)cc(O)c12 [Apigenin]
IC50 [3]: 70 µM
effect on the activity of rBmPYKI [3]: significantly inhibit
effect on rBmLDH / LDH reaction activity [4]: did not affect
IC50 ([4]; read-out: IC50 rBmLDH): > 1950 µM
IC50 ([5]; Babesia microti, in vitro culture, 72 h, parasitemia by Giemsa staining): 2.1 ± 1.16 µM
CC50 [8]: 58.6 ± 2.97 µM
CC50 [9]: 33 ± 1.18 µM

Tannic acid
effect on the activity of rBmPYKI [3]: significantly inhibit; also recorded: significantly reduce
inhibition of the activity of rBmPYKI ([3]; 3 µM): more than 90%
IC50 ([3]; read-out: IC50 rBmPYKI): 0.5 µM and 0.49 µM
IC50 ([4]; read-out: IC50 rBmLDH): 23.6 µM
inhibition rate of B. microti growth ([5]; 20 μM, 72 h): 80%
IC50 [5, 18]: 0.77 µM
inhibition of B. microti growth ([10]; 1 μM, concentration used in rescue assay): 70%
effect of addition of ATP on the inhibitory effect [10]: did not affect
effect of addition of pyruvate on the inhibitory effect [10]: rescue
microscopy observation of inhibited parasites ([10]; Giemsa staining): mostly located outside RBCs
inhibition of B. microti as compared with DMSO [10]: significantly inhibit
CC50 [11]: 53 ± 2.8 µM
CC50 [12]: 36.5 ± 4.75 µM

CCc1ccc(CCOc2ccc(CC3SC(=O)NC3=O)cc2)nc1 (centres unmarked) [Pioglitazone]
IC50 [3]: 44 µM
effect on the activity of rBmPYKI [3]: significantly inhibit
effect on rBmLDH / LDH reaction activity [4]: did not affect
IC50 ([4]; read-out: IC50 rBmLDH): > 1950 µM
effect on the growth of B. microti ([5]; in vitro culture, 72 h): no significant effect

O=c1cc(-c2ccccc2)oc2ccc(O)cc12 [6-Hydroxyflavone]
IC50 ([3]; read-out: IC50 rBmPYKI): 390 µM
effect on rBmLDH / LDH reaction activity [4]: obvious inhibitory effect
IC50 ([4]; read-out: IC50 rBmLDH): 828 µM

CC(=O)NCC(=O)O.CC(=O)NCC(=O)O.N=C(N)c1ccc(N=NNc2ccc(C(=N)N)cc2)cc1 [DA, diminazene aceturate]
effect of addition of ATP on the inhibitory effect [10]: did not affect
effect of addition of pyruvate on the inhibitory effect [10]: no effect
inhibition of B. microti as compared with DMSO [10]: significantly inhibit

OC[C@H]1O[C@@H](Oc2cc(O)cc(/C=C/c3ccc(O)cc3)c2)[C@H](O)[C@@H](O)[C@@H]1O [Polydatin]
IC50 [3]: 92.9 µM
IC50 [4]: 142 µM
effect on rBmLDH / LDH reaction activity [4]: obvious inhibitory effect

CCOC(=O)C(C)=O [Ethyl pyruvate]
time of exposure to kill trypanosomes [13]: ≤ 3 h

CC1=C(CSC(=S)N2CCCCC2)C(=O)c2ccccc2C1=O [PKM2 inhibitor]
effect on the activity of rBmPYKI [3]: significantly inhibit
IC50 ([3]; read-out: IC50 rBmPYKI): 23 µM
effect on rBmLDH / LDH reaction activity [4]: did not affect
IC50 ([4]; read-out: IC50 rBmLDH): > 1950 µM
inhibition rate of B. microti growth ([5]; 50 μM, 72 h): 80%
IC50 [5, 18]: 1.15 ± 0.11 µM
CC50 [11]: 39.2 ± 5.05 µM
CC50 [12]: 18.6 ± 2.46 µM

Nc1ncnc2c1ncn2[C@@H]1O[C@H](COP(=O)(O)OP(=O)(O)O)[C@@H](O)[C@H]1O [ADP]
Kcat [14]: 21.8 S^–1
KcatKM [14]: 5.62 × 10^4 S^–1⋅M^–1
Vmax [14]: 242 ± 16 U/mg
Km ([14]; other substrate saturating): 388 ± 87 µM
Km [1]: 180 µM
Km [2]: 126 µM
Km [15]: 350 µM

O=c1cc(-c2ccccc2)oc2ccccc12 [Flavone]
effect on the activity of rBmPYKI [3]: no effect
IC50 ([3]; read-out: IC50 rBmPYKI): > 1950 µM
effect on rBmLDH / LDH reaction activity [4]: no effect
IC50 ([4]; read-out: IC50 rBmLDH): > 1950 µM

B1: rBmPYKI (Babesia microti strain RI) (protein)
chain: MNRIIKAVPDDEISKKLTKIVCTIGPASANVDKIVAMIKSGMNVCRFNFSHGTHETHYETMKLVKEAMKQVPGKHIALMIDTKGPEIRTGKLAQGDYIQLTAGQTVKITSDQSVLCTNEIISITYEHLTSSVKPGNIILMADGTISFKVISVEKDYVVGEVMNSARLSNRKNVNLPGVKVNIPVIGEKDKKDILEFGVAHNMDYIAVSFVQSANDILSVKKLIGHNSNLKIISKIENVEGLINFDEILEVSDGIMIARGDLGMEIPSEKVFIAQKMMIYKCNIAGKPVITATQMLESMIVNPRPTRAEVTDVANAVLDGSDCVMLSGETANGAFSVECVRLMSHICLEAESCTDHMSVYLNLLKAIPTPVTTQEAIVRCSVGAIYSVNASCIIALTETGKTASLLAKYKPNQLIIAICNNENVAAGLALNRGVVPIMVDSFIDSDANINHAIEFAKKNNIVVEGSTVLAVHGMVSCAPGNTDMLKILNV
notes: recombinant, pGEX-6p-1, E. coli BL21, GST tag removed by 3C protease, 54 kDa
Km [16]: 655 ± 117 µM
Vmax [16]: 250 µmol/min/mg
Km [17]: 388 ± 87 µM
Vmax [17]: 242 µmol/min/mg
